Experimental data as given in publication PMC12261321, “Inhibitors of the Bacterioferritin Ferredoxin Complex Dysregulate Iron Homeostasis and Kill and Biofilm-Embedded Cells” (ACS Infectious Diseases, 2025).
Values after ≈ are worked out from the molar mass of the structure shown.

What was measured:
[1] = Determination of compound aqueous solubility in M63 media; format: physicochemical; settings: in M63 media at 35 °C
Experimental: Determination of Compound Aqueous Solubility. Compound stocks (100 mM in DMSO) were prepared from […]
powder and then further diluted with DMSO to prepare 20 mM working solutions, which were diluted as needed […]
in DMSO. 15 µL o f the DMSO solution was then d iluted to a final volume o f 1.0 mL in M63 media. Six solutions […]
were prepared for each compound, each with a distinct concentration and 1.5% DMSO (v/v). 700 µL of each […]
compound solution was transferred to a polystyrene 48-well plate (VWR), followed by acquisition of UV-vis […]
spectra (300 to 700 nm) with the aid of an Epoch 2 microplate reader (B i o Te k ). […]
Following the acquisition of UV-vis spectra, each of the wells in the plate was inspected under a […]
microscope for evidence of precipitation. Evidence of precipitation at any given concentration was determined by observing a shift in the baseline of the UV-vis spectra relative to the blank (M63 media) and/or evidence of visual precipitation with the aid of a micros cope. […]

[2] = Stability in aqueous solution; format: physicochemical
recombinant Pa BfrB = target: T1, recombinant Pa BfrB (Pseudomonas aeruginosa, UniProt Q9HY79); assay: Dissociation constant (Kd), fluorescence quenching titration of apo Pa BfrB; format: binding, P. aeruginosa
T1 construct: made in house; host or cells: E. coli
T1 sequence (Q9HY79 whole entry): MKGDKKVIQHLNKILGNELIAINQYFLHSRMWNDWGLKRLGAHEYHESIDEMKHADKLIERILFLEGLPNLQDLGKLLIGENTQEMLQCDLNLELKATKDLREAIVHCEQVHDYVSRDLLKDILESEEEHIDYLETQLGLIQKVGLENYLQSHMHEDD
Experimental: Measurement of Dissociation Constant (Kd) R ecombinant Pa BfrB was expressed in E. coli and purified as previously reported.19 Apo-BfrB (devoid of heme) was utilized for the measurements to prevent heme-driven fluorescence quenching. A 0.5 mL solution contai ning 0.01 µM apo Pa-BfrB in PBS (pH = 7.4) containing0.5% DMSO was plac ed into a 1 cm quartz cuvette wh ere it was titrated with aliq uots of compound dissolved in a 50% (v/v) PBS/DMSO solution. The fluorescence quenching brought by the addition of each aliquot was monitored with the aid of an Agilent Cary Fluorometer , with excitation at 280 nm, emission at 320- 470 nm, 10 x10 nm slit width, and an average of 5 scans per spectrum. Th e binding assay included at least 8 aliquots spanning from ~ 0.1 […]
A control titration was carried out by titrati ng compound into PBS buffer. The Kd was cal culated by fitting the data to equation S4, w here Fb is the fraction bound and Fmax is the fraction bound at saturating compound concentration.
FFbb = FFmmmmmm ? [ccccmmccccccmmcc ]? (S4) […]

P. aeruginosa PAO1 = assay: Half maximal inhibitory concentration (IC50), planktonic growth (CFU/mL); format: cell-based; settings: M63 media, 18 h
Experimental: Measurement of Half Maximal Inhibitory Concentration (IC50). IC50 values were determined as reported earlier13 with some modifications. Compound stock solutions in DMSO (100 mM and 10 mM) were prepared from powd er. To prep are the cell susp ensions utilized in the measu rements, starter cultures o f P. aeru ginosa wer e diluted to an optical density at 600 nm (OD600) = 0.005 in fresh LB media (5 mL) and then cultured at 37°C and 220 rpm for 4 h prior to diluting to an OD600 = 0.0001 in M63. A small volume of compound stock solution w as further diluted in DMSO to 30 µL and then diluted in M63 cell suspension to a final volume of 2.0 mL. The resultant solution was placed in a well of a 96-well plate and then serially 2-fold diluted in M63 cell suspension to produce 6 distinct com pound concent rations, each with 1.5% DMSO. Th e plate was co ver ed and incubated for 18 h at 35 °C in a Synergy H1 plate reader (Biotek). The resultant cell cultures were serially diluted in PBS and then plated on PI Agar plates (PIA; BD biosciences) for counting viable cells (CFU/mL). The % growth was calculated from the ratio CFU/mL(t reat ed )/CFU/mL(untreated control). To calculate the IC50 values, the % growth was plotted as a function of compound concentration expressed as log[compound] ( µM), and fitted to equation S1 describing the sigmoid- shaped response pattern, 14 where b is the slope factor, max is the upper asymptote (plateau), and min is the lower asymptote. IC 50 values are the average and standard deviation from three independent experiments , each conducted with thr ee techni cal replicates.

A. baumannii 5075 [3] = assay: MIC, broth microdilution in M63 media; format: cell-based
Experimental: (§1) Measurement of Minimum Inhibitory Concentrations (MIC). The MIC of compounds and select ed antibiotics against three strains of A. baumannii (5075, ATCC 17988, and ATCC 19606) were determined via the broth microdilution method according to Clinical and Laboratory Standard Instit ute (CLSI) guidelines,15 but culturing […]
(§2) To establish a 2-fold dilution series of compound, 985 μ L of diluted cells was mixed with 15 μ L of compound […]
(§3) dissolved in DMSO, such that the resultant solution had the highest concentration of compound or antibiotic tested and 1.5% DMSO. To carry out the serial dilution from the highest compound concentration, a 150 μ L solution of higher concentration compound or antibiotic was mixed with 150 μ L of cell suspension containing 1.5% DMSO in the wells of a 96 well plate.
(§4) Th e 96 well plate was in cubated for 20 hat 35 °C with continuous orbital shaking (205 cpm) in an Epoch2 microplate reader (BioTek), monitoring the growth by […]
(§5) following the OD600. […]
(§6) FFFFFF = MMMMMMAA iiii ccllccbbiiiicccciilliiMMMMMMAA+ MMMMMMBB iiii ccllccbbiiiicccciilliiMMMMMMBB S2 Time Kill Assays. Time-kill assays were performed with A. baumannii 507 5 by the broth macro- dilution method in M63- medium containing 1.5% DMSO. An overnight culture was diluted to approximately 5 x10^5 CFU/mL in fresh M63 media. The test solutions were prepared by adding compound (KM-5- 35, or KM-5- 25) dissolved in DMSO to 5 mL of diluted cell suspension to yield a solution of the desired compound concentration and 1.5% DMSO, or by the addition of antibiotic dissolved in water and a small volume of DMSO to produce the desired

A. baumannii ATCC 17978 = assay: MIC, broth microdilution in M63 media; format: cell-based
Experimental: as §1, §2, §3, §4, §5, §6

A. baumannii ATCC 19606 = assay: MIC, broth microdilution in M63 media; format: cell-based
Experimental: as §1, §2, §3, §4, §5, §6

A. baumannii 5075 [4] = assay: Checkerboard assay; format: cell-based; settings: 5075; for MIC: Acinetobacter baumannii; for Interaction of the antibiotic with KM-5–25: checkerboard
Experimental: To carry out the serial dilution from the highest compound concentration, a 150 μ L solution of higher concentration compound or antibiotic was mixed with 150 μ L of cell suspension containing […] Th e 96 well plate was in cubated for 20 hat 35 °C with continuous orbital shaking (205 cpm) in an Epoch2 microplate reader (BioTek), monitoring the growth by following the OD600. […] All assays were p erfo rmed in three biological replicates, each with three […] replicates. Checkerboard Assay. […] CFU/mL. […] in the vertical and hori zontal direction, respectivel y. Bacterial suspensions were […] escrib ed above fo r the MIC determination and added to the plates. […] The 96-well […] cubated for 20 h at 35 °C with continuous orbital shaking (205 cpm) in an Epoch2 microplate reader (BioTek), monitoring the growth by following the OD600. The MIC values of inhibitor and antibiotic were obtained from the corresponding row or column which contained only one component, whereas the remaining rows and columns were utilized for calculating the fractional inhibitory concentration index (FIC) with the aid of equation […] = […]2 Time Kill Assays. Time-kill assays were performed with A. baumannii 507 5 by the broth macro- dilution method […] An overnight culture was diluted to approximately 5 x10^5 CFU/mL in fresh […] media. […] DMSO, or by the addition of antibiotic dissolved in water and a small volume of DMSO to produce the desired S7

Pa Bfr = settings: earlier work, reference number not given; read-out: Kd of Pa Bfd binding to Pa Bfr; cited from earlier work
[5] = agent alone, KM-5–35 14 μg/mL = 40 μM

O=C1NC(=O)c2c(NCc3ccc(O)cc3O)cccc21 [BN-16-69]
Solubility [1]: Unstable | stability in aqueous solution [2]: unstable in aqueous solution

O=C1NC(=O)c2c(NCc3c(O)cccc3O)cccc21 [BN-16-70]
Solubility [1]: Unstable | stability in aqueous solution [2]: unstable in aqueous solution

O=C1NC(=O)c2c(NCc3cc(O)ccc3O)cccc21 [EB-5-93]
Solubility [1]: Unstable | stability in aqueous solution [2]: unstable in aqueous solution

Cc1cccc(O)c1CNc1cccc2c1C(=O)NC2=O [SB-15-171]
Solubility [1]: Unstable

Cc1ccc(O)c(CNc2ccc(Br)c3c2C(=O)NC3=O)c1 [SB-16-122]
solubility at 4 h [1]: 40 µM (≈ 14.4 µg/mL) | Kd (recombinant Pa BfrB): 5 ± 1 µM | IC50 (P. aeruginosa PAO1; planktonic cells): 19 ± 4 µM | MIC (A. baumannii 5075 [3]; 20 h): 20 µM (≈ 7.22 µg/mL) | MIC (A. baumannii ATCC 17978; 20 h): 20 µM (≈ 7.22 µg/mL) | MIC (A. baumannii ATCC 19606; 20 h): 20 µM (≈ 7.22 µg/mL)

O=C1NC(=O)c2c(NCc3cc(O)c(Br)cc3O)cccc21 [SB-16-186]
Solubility [1]: Unstable

O=C1NC(=O)c2c(NCC3CCOCC3)cccc21 [SB-16-237]
solubility at 4 h [1]: 100 µM (≈ 26 µg/mL) | Kd (recombinant Pa BfrB): 42 ± 10 µM | IC50, P. aeruginosa PAO1 (P. aeruginosa PAO1; planktonic cells): Not active | MIC (A. baumannii 5075 [3]; 20 h): > 100 µM | MIC (A. baumannii ATCC 17978; 20 h): > 100 µM | MIC (A. baumannii ATCC 19606; 20 h): > 100 µM

O=C1NC(=O)c2c(NCc3ccc4[nH]ccc4c3)cccc21 [SB-17-16]
Solubility [1]: Not soluble

O=C1NC(=O)c2c(NCc3cccc4[nH]ccc34)cccc21 [SB-17-75]
solubility at 4 h ([1]; M63 media with 1.5% DMSO, 35 °C, aqueous buffer, kinetic from dmso stock): 60 µM (≈ 17.5 µg/mL) | Kd (recombinant Pa BfrB): 15 ± 2 µM | IC50 (P. aeruginosa PAO1; Pseudomonas aeruginosa, PAO1, planktonic cells): 32 ± 13 µM | MIC (A. baumannii 5075 [3]; Acinetobacter baumannii, 5075, 20 h): 30 µM (≈ 8.74 µg/mL) | MIC (A. baumannii ATCC 17978; Acinetobacter baumannii, ATCC17978, 20 h): 60 µM (≈ 17.5 µg/mL) | MIC (A. baumannii ATCC 19606; Acinetobacter baumannii, ATCC19606, 20 h): 30 µM (≈ 8.74 µg/mL)

Cn1ccnc1CNc1cccc2c1C(=O)NC2=O [SB-17-95]
solubility at 4 h [1]: 100 µM (≈ 25.6 µg/mL) | Kd (recombinant Pa BfrB): 57 ± 6 µM | IC50, P. aeruginosa PAO1 (P. aeruginosa PAO1; planktonic cells): Not active | MIC, A. baumannii 5075 (A. baumannii 5075 [3]; 20 h): Not active | MIC, A. baumannii 17978 (A. baumannii ATCC 17978; 20 h): Not active | MIC, A. baumannii 19606 (A. baumannii ATCC 19606; 20 h): Not active

O=C1NC(=O)c2c(NCc3ccc4c(c3)CCO4)cccc21 [SB-17-98]
Solubility [1]: Not soluble

O=C1NC(=O)c2c(NCc3ccc4occc4c3)cccc21 [SB-17-109]
Solubility [1]: Not soluble

O=C1NC(=O)c2c(NCc3cccc4c3CCO4)cccc21 [SB-17-110]
Solubility [1]: Not soluble

Cn1ccc2ccc(CNc3cccc4c3C(=O)NC4=O)cc21 [SB-17-114]
Solubility [1]: Not soluble

CC(C)(O/N=C(\C(=O)N[C@@H]1C(=O)N2C(C(=O)[O-])=C(C[n+]3ccccc3)CS[C@H]12)c1csc(N)n1)C(=O)O [ceftazidime, reference compound]
MIC (A. baumannii 5075 [4]; [5]): 256 µg/mL

O=C(O)c1cn(C2CC2)c2cc(N3CCNCC3)c(F)cc2c1=O [ciprofloxacin, reference compound]
MIC (A. baumannii 5075 [4]; [5]): 128 µg/mL

C[C@@H](O)[C@H]1C(=O)N2C(C(=O)O)=C(SCCN=CN)C[C@H]12 [imipenem, reference compound]
MIC (A. baumannii 5075 [4]; [5]): 1 µg/mL | Interaction of the antibiotic with KM-5–25 (A. baumannii 5075 [4]): additive

C[C@@H](O)[C@H]1C(=O)N2C(C(=O)O)=C(S[C@@H]3CN[C@H](C(=O)N(C)C)C3)[C@H](C)[C@H]12 [meropenem, reference compound]
MIC (A. baumannii 5075 [4]; [5]): 2 µg/mL

NC[C@H]1O[C@H](O[C@H]2[C@H](O)[C@@H](O[C@H]3O[C@H](CO)[C@@H](O)[C@H](N)[C@H]3O)[C@H](N)C[C@@H]2N)[C@H](N)C[C@@H]1O [tobramycin, reference compound]
MIC (A. baumannii 5075 [4]; [5]): 512 µg/mL

colistin [reference compound]
MIC alone (A. baumannii 5075 [4]; [5]): 1 µg/mL | Interaction of the antibiotic with KM-5–25 (A. baumannii 5075 [4]): synergy

B1: Pa Bfd: Bfr associated ferredoxin that binds Pa Bfr (protein, UniProt Q9HY80 1-73, looked up)
Bacterioferritin-associated …: MYVCLCQGVTDNQIRDAIYEGCCSYREVREATGVGTQCGKCACLAKQVVRETLNDLQSAQPVPAFGTTAFVAA
Kd (Pa Bfr): 4.7 µM
